The values below come from ChEMBL document CHEMBL2311342, “Inhibitors of the Yersinia protein tyrosine phosphatase through high throughput and virtual screening approaches” (Bioorg Med Chem Lett, 2013).

This test is described as follows: Inhibition of Yersinia pestis YopH catalytic domain (residues 163-468) using pNPP substrate.
By IC50 is commonly meant the midpoint of a concentration-inhibition curve. A lower IC50 goes with inhibition by little substance. For `Cn1nc(-c2ccc(Cl)cc2)nc2c(=O)n(C)c(=O)nc1-2`, inhibition was half-maximal at 1.28 µM (IC50). For `Cc1c(N=c2c(=O)c3ccccc3c2=O)c(=O)n(-c2ccccc2)n1C` the value was 4.01 µM; for `O=C(O)c1ccc(-c2nc(-c3ccc(-c4ccccc4)cc3)c(-c3ccc(-c4ccccc4)cc3)[nH]2)cc1`, 2.15 µM. The compound `Cn1nc(-c2cccs2)nc2c(=O)n(C)c(=O)nc1-2` had an IC50 of 0.88 µM. This IC50 lies about 2.4-fold lower than the previous one. For `CN1C(=O)C(=Cc2cn(Cc3cnc(Cl)s3)c3ccccc23)C(=O)N(C)C1=O`, inhibition was half-maximal at 4.61 µM (IC50). For `O=C(O)c1cc(-c2ccc(/C=N/Nc3nc4nonc4nc3Nc3ccc(F)cc3)o2)ccc1O` the value was 0.38 µM; for `O=C(COc1ccccc1)N1CCN(S(=O)(=O)c2ccccc2[N+](=O)[O-])CC1`, 0.98 µM; for `O=C1Nc2ccc(Br)cc2/C1=C1/SC(=S)N(c2cccc(C(F)(F)F)c2)C1=O`, 1.22 µM.

For `CCCCN1C(=O)/C(=C2\SC(N3CCC(C(N)=O)CC3)=NC2=O)c2ccccc21`, the IC50 was 1.68 µM. The IC50 values of the last two compounds are within 1.5-fold of each other. `O=C1NC(=O)C(=Cc2ccc(OCc3ccc([N+](=O)[O-])cc3)c(Br)c2)C(=O)N1` showed a half-maximal inhibitory concentration (IC50) of 1.89 µM. For `O=C(O)c1ccc(N2C(=O)c3ccc(-c4nc5ccccc5c(=O)o4)cc3C2=O)cc1` the value was 1.92 µM; for `Cc1c(/C(=N/OC(=O)c2ccc(F)cc2)C(F)(F)F)cc(-c2ccc(S(C)(=O)=O)cc2)n1-c1ccc(F)cc1`, 2.35 µM; for `COc1cc(/C=C2/N=C(c3ccc(Cl)c(Cl)c3)OC2=O)cc(OC)c1OC`, 4.48 µM. In the case of `NC(=S)N1N=C(c2ccc([N+](=O)[O-])cc2)/C(=N\Nc2ccc(S(=O)(=O)O)cc2)C1=O` it was 4.61 µM. As to `O=C1NC(=S)NC(=O)C1=Cc1ccc(N2CCc3ccccc3C2)c([N+](=O)[O-])c1`, the half-inhibitory concentration (IC50) was determined as 4.73 µM. The IC50 values of the last two compounds are within 1.5-fold of each other. For the compound `O=C1OC(c2ccc(Cl)cc2)=N/C1=C/Nc1ccc(O)c(C(=O)O)c1`, the midpoint of inhibition, the IC50, lay at 8.1 µM. On to `CN1C(=O)C(=Cc2ccc(OCc3c(F)cccc3Cl)cc2)C(=O)N(C)C1=O`, for which half-maximal inhibition (IC50) was put at 9.89 µM.
